Laboratory results as given in ChEMBL document CHEMBL1201862, “PubChem BioAssay data set” (2004).
Activity calls are given as the source filed them.

Legend:
Protein skinhead-1 = target: T1, Protein skinhead-1 (Caenorhabditis elegans, UniProt P34707); type: functional
T1 sequence (P34707 whole entry): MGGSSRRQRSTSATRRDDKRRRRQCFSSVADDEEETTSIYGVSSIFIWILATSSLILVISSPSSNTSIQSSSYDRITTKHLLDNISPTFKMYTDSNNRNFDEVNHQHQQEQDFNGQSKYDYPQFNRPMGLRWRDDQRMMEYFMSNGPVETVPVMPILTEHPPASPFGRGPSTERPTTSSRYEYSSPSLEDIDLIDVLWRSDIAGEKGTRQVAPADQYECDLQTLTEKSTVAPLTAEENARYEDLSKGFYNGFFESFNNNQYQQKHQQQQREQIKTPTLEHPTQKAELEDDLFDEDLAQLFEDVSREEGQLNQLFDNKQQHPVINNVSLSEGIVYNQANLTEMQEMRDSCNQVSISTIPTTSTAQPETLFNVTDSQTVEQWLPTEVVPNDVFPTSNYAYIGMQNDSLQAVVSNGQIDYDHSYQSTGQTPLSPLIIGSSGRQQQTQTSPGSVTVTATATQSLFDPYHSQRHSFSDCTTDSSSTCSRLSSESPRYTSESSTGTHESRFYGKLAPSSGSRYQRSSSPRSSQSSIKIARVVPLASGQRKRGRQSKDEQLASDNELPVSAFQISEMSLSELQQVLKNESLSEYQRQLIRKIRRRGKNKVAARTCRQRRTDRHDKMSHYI

[1] = target: Voltage-dependent T-type calcium channel subunit alpha-1H (Homo sapiens, UniProt O95180); type: functional;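 further: channel activity triggered by adding a high calcium stimulation buffer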
Beta Lactamase = Beta Lactamase (Pseudomonas aeruginosa, UniProt Q932Y6); experiment: beta-lactamase reporter inhibitor potency, dose response, artefact control for TLR9-MyD88 binding inhibitor project, BLA reporter cells, FRET fluorescence (AID 588341); type: cell-based;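 further: cell based assay in CHO-K1 cells stably expressing beta-lactamase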
Sequence of Beta Lactamase (Q932Y6 whole entry, the tested form may be a part): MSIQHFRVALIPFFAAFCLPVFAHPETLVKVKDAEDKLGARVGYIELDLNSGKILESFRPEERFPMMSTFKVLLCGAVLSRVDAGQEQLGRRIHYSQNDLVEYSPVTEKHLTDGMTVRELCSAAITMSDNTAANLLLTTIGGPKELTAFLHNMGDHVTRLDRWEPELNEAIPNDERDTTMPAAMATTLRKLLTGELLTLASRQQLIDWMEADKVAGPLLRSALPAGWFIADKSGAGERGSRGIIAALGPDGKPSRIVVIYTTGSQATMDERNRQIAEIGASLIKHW

CHO = experiment: cytotoxicity in TLR9-MyD88 CHO cells, dose response, cytotoxicity control for TLR9-MyD88 binding inhibitor project, cell-based, luminescence (AID 588339); type: functional, hamster; details: Cricetulus griseus;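 further: CHO cells stably coexpressing TLR9 and MyD88 fusions from primary screen; compound exposure lasted 48 hours before viability readout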
[2] = target: T2, Sentrin-specific protease 8 (Homo sapiens, UniProt Q96LD8); experiment: SENP8 protease inhibitors, SAR follow-up, biochemical, luminescence (AID 504501); type: functional
T2 sequence (Q96LD8 whole entry): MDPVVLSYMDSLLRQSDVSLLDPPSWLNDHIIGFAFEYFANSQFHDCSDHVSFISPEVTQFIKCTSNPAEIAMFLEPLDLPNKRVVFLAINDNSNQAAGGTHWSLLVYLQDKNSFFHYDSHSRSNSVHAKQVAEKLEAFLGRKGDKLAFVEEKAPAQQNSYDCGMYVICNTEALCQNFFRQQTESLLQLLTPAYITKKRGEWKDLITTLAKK

Caspase-3 = target: T3, Caspase-3 (Homo sapiens, UniProt P42574); experiment: SAR Analysis of small molecule inhibitors of Sentrin-specific proteases (SENPs) using a Caspase-3 Selectivity assay. [Related pubchem assays (depositor defined):AID2540, AID2599, AID434973, AID489001]; type: functional
T3 sequence (P42574 whole entry): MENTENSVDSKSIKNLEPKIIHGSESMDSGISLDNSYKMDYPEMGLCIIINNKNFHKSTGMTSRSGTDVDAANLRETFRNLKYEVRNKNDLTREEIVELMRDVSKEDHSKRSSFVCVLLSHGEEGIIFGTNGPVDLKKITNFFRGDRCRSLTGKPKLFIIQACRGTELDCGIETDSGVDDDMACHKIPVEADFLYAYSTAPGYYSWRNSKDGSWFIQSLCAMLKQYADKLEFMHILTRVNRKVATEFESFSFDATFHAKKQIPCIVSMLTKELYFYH

[3] = target: T4, Sentrin-specific protease 7 (Homo sapiens, UniProt Q9BQF6); experiment: SENP7 protease inhibitors, SAR follow-up, biochemical, luminescence (AID 504497); type: functional
T4 sequence (Q9BQF6 whole entry): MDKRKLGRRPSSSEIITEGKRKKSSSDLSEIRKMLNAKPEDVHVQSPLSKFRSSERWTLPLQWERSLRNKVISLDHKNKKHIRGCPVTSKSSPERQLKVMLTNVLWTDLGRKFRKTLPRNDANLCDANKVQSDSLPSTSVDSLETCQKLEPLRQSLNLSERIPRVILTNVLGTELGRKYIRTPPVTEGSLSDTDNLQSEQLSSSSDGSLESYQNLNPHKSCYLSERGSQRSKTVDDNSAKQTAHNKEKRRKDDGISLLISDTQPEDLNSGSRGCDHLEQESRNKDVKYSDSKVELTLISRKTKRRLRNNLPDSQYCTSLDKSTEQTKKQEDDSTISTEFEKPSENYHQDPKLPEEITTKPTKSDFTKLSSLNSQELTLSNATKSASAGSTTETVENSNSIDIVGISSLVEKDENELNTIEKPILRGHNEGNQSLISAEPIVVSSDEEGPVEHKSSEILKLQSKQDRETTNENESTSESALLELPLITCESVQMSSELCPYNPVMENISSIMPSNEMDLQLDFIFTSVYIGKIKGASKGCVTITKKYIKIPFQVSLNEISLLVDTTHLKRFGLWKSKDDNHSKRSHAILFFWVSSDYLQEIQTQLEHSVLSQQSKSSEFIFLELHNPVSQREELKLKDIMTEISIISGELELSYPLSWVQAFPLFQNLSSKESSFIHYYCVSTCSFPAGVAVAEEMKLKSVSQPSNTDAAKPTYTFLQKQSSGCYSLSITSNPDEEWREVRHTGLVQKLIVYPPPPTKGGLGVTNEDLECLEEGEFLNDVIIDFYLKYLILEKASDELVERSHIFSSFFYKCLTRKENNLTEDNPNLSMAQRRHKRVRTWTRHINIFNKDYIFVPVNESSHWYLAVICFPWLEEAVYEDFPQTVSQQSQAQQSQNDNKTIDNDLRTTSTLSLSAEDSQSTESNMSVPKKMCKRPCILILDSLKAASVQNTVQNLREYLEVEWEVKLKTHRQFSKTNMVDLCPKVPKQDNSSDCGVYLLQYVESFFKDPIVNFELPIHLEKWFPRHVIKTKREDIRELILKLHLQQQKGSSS

[4] = target: T5, Sentrin-specific protease 6 (Homo sapiens, UniProt Q9GZR1); experiment: SAR Analysis of small molecule inhibitors of Sentrin-specific protease 6 (SENP6) using a Luminescent assay. [Related pubchem assays (depositor defined):AID2582, AID2599]; type: functional
T5 sequence (Q9GZR1 whole entry): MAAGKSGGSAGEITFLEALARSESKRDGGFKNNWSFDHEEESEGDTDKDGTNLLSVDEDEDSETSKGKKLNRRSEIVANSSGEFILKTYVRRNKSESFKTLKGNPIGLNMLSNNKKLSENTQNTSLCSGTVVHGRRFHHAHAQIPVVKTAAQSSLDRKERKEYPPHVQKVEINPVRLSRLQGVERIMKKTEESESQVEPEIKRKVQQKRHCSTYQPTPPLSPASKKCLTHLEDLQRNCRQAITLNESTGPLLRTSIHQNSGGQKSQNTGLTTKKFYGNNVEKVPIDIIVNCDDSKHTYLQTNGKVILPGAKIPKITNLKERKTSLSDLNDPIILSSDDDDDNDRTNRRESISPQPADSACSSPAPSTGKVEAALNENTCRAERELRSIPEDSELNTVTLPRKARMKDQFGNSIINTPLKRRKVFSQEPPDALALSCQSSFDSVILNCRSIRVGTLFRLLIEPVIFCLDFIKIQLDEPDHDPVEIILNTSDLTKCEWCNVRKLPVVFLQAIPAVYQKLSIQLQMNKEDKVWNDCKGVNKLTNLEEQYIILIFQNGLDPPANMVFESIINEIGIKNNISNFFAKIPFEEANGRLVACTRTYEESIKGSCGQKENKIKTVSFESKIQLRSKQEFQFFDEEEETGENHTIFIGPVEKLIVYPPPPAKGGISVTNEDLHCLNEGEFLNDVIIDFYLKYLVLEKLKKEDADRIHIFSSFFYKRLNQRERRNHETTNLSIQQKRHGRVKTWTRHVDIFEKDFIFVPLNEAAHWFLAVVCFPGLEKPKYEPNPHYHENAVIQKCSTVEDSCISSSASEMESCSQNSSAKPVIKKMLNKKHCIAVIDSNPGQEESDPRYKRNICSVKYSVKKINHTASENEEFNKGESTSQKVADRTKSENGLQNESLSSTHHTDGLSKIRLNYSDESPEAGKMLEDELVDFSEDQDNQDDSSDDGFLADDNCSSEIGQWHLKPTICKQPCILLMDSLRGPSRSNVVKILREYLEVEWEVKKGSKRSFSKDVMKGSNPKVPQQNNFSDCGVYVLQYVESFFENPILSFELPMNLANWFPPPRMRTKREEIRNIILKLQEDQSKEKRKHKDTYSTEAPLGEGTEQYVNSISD

[5] = target: T6, Endoribonuclease toxin MazF (Escherichia coli K-12, UniProt P0AE70); experiment: MazF toxin RNase activators, dose response, biochemical, fluorescence, single-stranded RNA substrate, uHTS hits (AID 588481); type: functional
T6 sequence (P0AE70 whole entry): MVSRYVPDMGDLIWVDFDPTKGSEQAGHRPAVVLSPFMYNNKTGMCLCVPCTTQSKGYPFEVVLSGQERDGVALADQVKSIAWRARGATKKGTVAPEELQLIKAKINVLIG

[6] = target: T6, Endoribonuclease toxin MazF; experiment: fluorescent RNA oligo signal without MazF, dose response, counter-screen for MazEF activator project, biochemical, fluorescence, single-stranded RNase substrate (AID 588502); type: functional
[7] = inhibitors of firefly luciferase expression or activity, dose response, H4 neuroglioma cells, luminescence (AID 1990); type: functional, cell-based
[8] = inhibitors of SNCA 5'UTR-driven reporter translation, confirmation, H4 neuroglioma cells, luminescence (AID 1988); type: functional, cell-based
[9] = Luminescence Cell-Based Dose Response HTS to Identify Inhibitors of 5'UTR Stem-Loop Driven Prion Protein mRNA Translation in H4 Neuroglioblastoma Cells. [Related pubchem assays: 1827 (Project Summary), 1813 (Primary HTS)]; type: functional
HEK293 = experiment: inhibitors of LMP1-driven NF-kB reporter, dose response, cell-based, HEK293, luciferase, cherry-pick (AID 588343); type: functional; details: Homo sapiens
P388/ADR = experiment: cells; type: functional; details: Mus musculus
SN12K1 = experiment: cells; type: functional; details: Homo sapiens
P388 = experiment: cells; type: functional; details: Mus musculus
[10] = target: 72 kDa type IV collagenase (Homo sapiens, UniProt P08253); experiment: Dose Response validation of uHTS RPN11 inhibitor hits using a MMP-2 Fluorescence assay.; type: functional
Sequence of 72 kDa type IV collagenase (P08253 whole entry): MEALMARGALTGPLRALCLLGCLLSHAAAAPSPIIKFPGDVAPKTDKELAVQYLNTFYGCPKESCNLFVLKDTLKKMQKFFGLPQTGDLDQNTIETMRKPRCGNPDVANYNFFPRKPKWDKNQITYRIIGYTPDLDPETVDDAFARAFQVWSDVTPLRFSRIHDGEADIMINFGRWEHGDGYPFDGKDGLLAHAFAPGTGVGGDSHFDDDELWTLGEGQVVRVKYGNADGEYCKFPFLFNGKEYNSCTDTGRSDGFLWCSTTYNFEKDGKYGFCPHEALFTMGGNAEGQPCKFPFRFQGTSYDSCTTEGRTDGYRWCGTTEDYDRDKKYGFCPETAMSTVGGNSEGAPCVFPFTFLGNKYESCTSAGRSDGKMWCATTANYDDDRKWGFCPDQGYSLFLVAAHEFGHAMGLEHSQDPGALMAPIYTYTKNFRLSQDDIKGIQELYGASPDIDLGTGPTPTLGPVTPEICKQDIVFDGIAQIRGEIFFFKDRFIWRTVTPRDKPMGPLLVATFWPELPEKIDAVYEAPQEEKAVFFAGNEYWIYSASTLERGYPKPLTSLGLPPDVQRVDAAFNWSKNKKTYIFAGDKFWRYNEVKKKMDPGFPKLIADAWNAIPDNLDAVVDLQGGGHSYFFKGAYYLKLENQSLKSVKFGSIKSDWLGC

Prothrombin = Prothrombin (Bos taurus, UniProt P00735); experiment: thrombin inhibition, dose response, biochemical, fluorescence polarization, uHTS hits (AID 602369); type: functional
[11] = target: 26S proteasome non-ATPase regulatory subunit 14 (Homo sapiens, UniProt O00487); experiment: inhibition of proteasome subunit RPN11 – biochemical, fluorescence polarization, uHTS hits, confirmation (AID 602368); type: functional
Sequence of 26S proteasome non-ATPase regulatory subunit 14 (O00487 whole entry): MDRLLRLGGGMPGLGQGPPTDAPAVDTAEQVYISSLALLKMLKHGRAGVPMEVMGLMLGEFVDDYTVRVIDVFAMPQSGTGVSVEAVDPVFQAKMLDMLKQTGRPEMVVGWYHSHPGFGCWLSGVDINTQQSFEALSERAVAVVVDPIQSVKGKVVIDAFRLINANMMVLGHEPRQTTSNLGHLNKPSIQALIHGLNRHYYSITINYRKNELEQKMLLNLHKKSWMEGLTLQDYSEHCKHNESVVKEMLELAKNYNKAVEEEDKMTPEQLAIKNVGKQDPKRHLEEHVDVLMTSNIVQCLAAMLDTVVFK

[12] = target: Ras and Rab interactor 1/Tyrosine-protein kinase ABL1 (Homo sapiens, UniProt P00519+Q13671); type: functional;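 further: biochemical TR-FRET dose-response test measuring inhibition of binding between Rin1 and Abl proteins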
Sequence of Ras and Rab interactor 1/Tyrosine-protein kinase ABL1 (P00519 whole entry): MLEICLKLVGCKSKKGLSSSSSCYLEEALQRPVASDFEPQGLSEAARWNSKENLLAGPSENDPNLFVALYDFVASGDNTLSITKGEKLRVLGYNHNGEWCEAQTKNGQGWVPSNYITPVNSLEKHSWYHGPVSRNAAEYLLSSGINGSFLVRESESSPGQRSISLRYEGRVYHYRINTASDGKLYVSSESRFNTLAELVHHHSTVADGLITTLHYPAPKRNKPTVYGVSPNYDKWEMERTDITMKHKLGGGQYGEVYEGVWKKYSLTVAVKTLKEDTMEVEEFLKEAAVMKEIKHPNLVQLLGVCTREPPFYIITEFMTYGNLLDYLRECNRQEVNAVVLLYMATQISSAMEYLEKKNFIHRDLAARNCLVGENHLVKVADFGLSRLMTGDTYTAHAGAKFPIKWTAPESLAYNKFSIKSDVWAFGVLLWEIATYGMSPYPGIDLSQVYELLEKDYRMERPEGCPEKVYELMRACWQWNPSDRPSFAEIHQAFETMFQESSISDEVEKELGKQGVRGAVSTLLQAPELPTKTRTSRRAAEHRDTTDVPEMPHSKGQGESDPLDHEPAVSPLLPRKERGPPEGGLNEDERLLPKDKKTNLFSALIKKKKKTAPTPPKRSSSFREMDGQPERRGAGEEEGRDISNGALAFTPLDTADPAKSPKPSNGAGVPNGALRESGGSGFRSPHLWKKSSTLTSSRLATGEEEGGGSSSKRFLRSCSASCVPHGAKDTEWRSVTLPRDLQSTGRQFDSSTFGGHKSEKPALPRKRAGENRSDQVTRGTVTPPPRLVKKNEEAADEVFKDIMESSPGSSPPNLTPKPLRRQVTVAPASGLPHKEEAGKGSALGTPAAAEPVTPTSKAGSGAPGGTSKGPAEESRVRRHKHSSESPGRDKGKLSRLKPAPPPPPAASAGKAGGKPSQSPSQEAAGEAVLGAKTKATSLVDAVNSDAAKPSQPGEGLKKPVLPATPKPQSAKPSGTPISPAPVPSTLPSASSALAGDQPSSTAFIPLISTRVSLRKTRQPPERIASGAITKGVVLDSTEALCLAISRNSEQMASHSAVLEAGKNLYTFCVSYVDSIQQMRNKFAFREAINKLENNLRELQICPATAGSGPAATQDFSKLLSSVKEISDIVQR
Sequence of Ras and Rab interactor 1/Tyrosine-protein kinase ABL1 (Q13671 whole entry): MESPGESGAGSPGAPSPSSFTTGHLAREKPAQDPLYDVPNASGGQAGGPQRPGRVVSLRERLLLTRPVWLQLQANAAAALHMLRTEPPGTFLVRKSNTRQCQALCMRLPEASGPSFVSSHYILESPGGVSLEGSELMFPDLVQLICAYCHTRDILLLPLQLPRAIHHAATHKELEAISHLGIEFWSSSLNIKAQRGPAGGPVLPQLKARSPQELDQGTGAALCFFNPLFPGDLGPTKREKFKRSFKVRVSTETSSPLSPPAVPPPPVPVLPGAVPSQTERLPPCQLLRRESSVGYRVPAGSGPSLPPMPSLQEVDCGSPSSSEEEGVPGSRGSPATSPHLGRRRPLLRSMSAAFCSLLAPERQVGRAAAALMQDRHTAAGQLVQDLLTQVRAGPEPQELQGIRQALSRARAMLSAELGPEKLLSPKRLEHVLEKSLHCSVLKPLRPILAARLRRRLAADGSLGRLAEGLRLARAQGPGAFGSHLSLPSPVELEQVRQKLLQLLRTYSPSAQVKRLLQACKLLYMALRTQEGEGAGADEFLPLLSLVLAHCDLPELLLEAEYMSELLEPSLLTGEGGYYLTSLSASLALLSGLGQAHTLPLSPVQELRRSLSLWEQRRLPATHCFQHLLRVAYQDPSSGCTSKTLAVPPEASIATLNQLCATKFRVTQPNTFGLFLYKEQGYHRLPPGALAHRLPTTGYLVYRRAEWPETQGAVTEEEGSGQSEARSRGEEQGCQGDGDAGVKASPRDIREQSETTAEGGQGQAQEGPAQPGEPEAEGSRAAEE

## CCCN1C(=O)/C(=C/c2ccc(N3CCCC3)c(C)c2)NC1=S
Protein skinhead-1
  IC50: > 100 µM (inactive)
[1]
  EC50: 3.84 µM (active)
Beta Lactamase
  IC50: 6.66 µM (active)
CHO
  IC50: 32.1 µM (inactive)

## Oc1ccccc1-c1nc(-c2ccccc2)no1
[2]
  IC50: 1.86 µM (active)
Caspase-3
  IC50: 1.09 µM (active)
[3]
  IC50: 1.55 µM (active)
[4]
  IC50: 1.75 µM (active)

## CC(=O)C(=NNc1cc(C)ccc1O)C(C)=O
[5]
  EC50: > 99 µM (inactive)
[6]
  EC50: > 99 µM (inactive)

## O=C(N/N=C/c1cccs1)c1[nH]nc2c1CCCC2
[7]
  EC50: 8.62 µM (inconclusive)
[8]
  EC50: 8.52 µM (active)
[9]
  EC50: 9.49 µM (active)
HEK293
  AC50: 2.39 µM (active)

## CC1OC(O[C@@H]2C=C3CC[C@@H]4[C@H](CC[C@]5(C)[C@@H](c6ccc(=O)oc6)CC[C@]45O)[C@@]3(C)CC2)C(O)C(OC2OC(CO)C(O)C(O)C2O)C1O (stereo not given in full)
P388/ADR
  GI50: 51.3 µM (inactive)
SN12K1
  GI50: 0.025 µM (active)
P388
  GI50: 45.3 µM (inactive)

## COc1cc(/C=C(\C#N)C(=O)Nc2cc(C(F)(F)F)ccc2Cl)ccc1OCC(=O)Nc1cccc(C(F)(F)F)c1
[10]
  IC50: > 100 µM (inactive)
Prothrombin
  IC50: 40.2 µM (active)
[11]
  IC50: 32.5 µM (active)

## CCCC(=O)Nc1ccc(-c2nc3cc(Cl)ccc3o2)cc1
[2]
  IC50: > 99 µM (inactive)
Caspase-3
  IC50: > 99 µM (inactive)
[3]
  IC50: > 99 µM (inactive)
[4]
  IC50: > 99 µM (inactive)

## CCCC/N=c1\scc(-c2ccc3c(c2)NC(=O)CO3)n1N=C1CCCC1
[10]
  IC50: > 100 µM (inactive)
Prothrombin
  IC50: 27.7 µM (active)
[11]
  IC50: 26.6 µM (active)

## O=C(COc1cccc(Cl)c1)N/N=C\c1cc2ccccc2nc1Cl
[5]
  EC50: > 99 µM (inactive)
[6]
  EC50: > 99 µM (inactive)

## CCOc1ccc2nc(N(CCN(C)C)C(=O)c3cc4ccccc4cc3OC)sc2c1
Protein skinhead-1
  IC50: > 100 µM (inactive)
[12]
  IC50: 52 µM (inactive)

## CN(Cc1ccccc1)C(=O)c1ccc(NC(=O)Cc2ccc(NC(=O)C3CCN(C(=O)C4CCCC4)CC3)cc2)cc1
[12]
  IC50: 20.7 µM (inactive)

## CCOc1ccc(C(=O)N/N=C/c2cc(Cl)ccc2[N+](=O)[O-])cc1
[10]
  IC50: > 100 µM (inactive)
Prothrombin
  IC50: 59.3 µM (active)
[11]
  IC50: 19.3 µM (active)
